Laboratory results from US20160296437A1, “ORAL CARE ZINC COMPOSITIONS” (COLGATE-PALMOLIVE COMPANY, priority 2013, published 2016).

Legend:
[1] = tested on: Actinobacillus actinomycetemcomitans (Aa) ATCC cat#29522; test: Bacterial invasion of human periodontal ligament fibroblasts by Actinobacillus actinomycetemcomitans (internalized colony count); type: cell-based; conditions: for reduces internalized Actinobacillus actinomycetemcomitans: versus Aa alone, HPdLF cells
Protocol: (§1) Human periodontal ligament fibroblasts (HPdLF, Lonza cat#CC-7049) are seeded onto a plate and incubated at 37° C. in 5% CO2 overnight using SCGM bullet kit (Lonza, #CC-3205) containing Stromal cell basal medium, hFGF-B, insulin, FBS and GA-1000.
(§2) Pathogenic bacteria Actinobacillus actinomycetemcomitans (Aa) ATCC cat#29522 or Porphyromonas gingivalis (Pg) ATCC cat#33277) are incubated overnight at 37° C. (using tryptic soy broth for Actinobacillus actinomycetemcomitans and half-strength brain heart infusion (supplemented with yeast extract, hemin and vitK1) for Porphyromonas gingivalis). The optical density (OD) at 610 nm is read. The bacteria are centrifuged at 8000 rpm for 10 mins and the pellet resuspended in cell culture media and diluted to OD610 of 0.1 to 0.2.
(§3) The test sample (dissolved in water) is added to the cells and incubated at 37 C in 5% CO2 incubator for 30 minutes before the bacteria are added. The cells are infected with bacteria by adding the resuspended bacteria to the cells and further incubating at 37° C. in 5% CO2 incubator for 90 to 120 minutes.
The cells are washed five times with PBS to remove non-adherent bacteria. Fresh cell culture medium containing 1× penicillin (100 IU) and streptomycin (100 μg/ml) is added and the cells incubated at 37° C. in 5% CO2 incubator for 2 hours to kill extracellular bacteria. The medium is then removed and the cells washed three times with PBS. 1 ml 1% saponin solution in PBS is added to the infected cells for 5 minutes at. 37° C. to lyse the cells and release internalized bacteria. Dilutions (serial dilutions in PBS with dilution factor 10) are plated onto a suitable medium using a 100 μl sample and spread with a sterilized stick before incubating in an anaerobic chamber at 37° C. for 2-3 days and counting the resultant bacterial colonies.

[2] = tested on: Porphyromonas gingivalis (Pg) ATCC cat#33277; test: Bacterial invasion of human periodontal ligament fibroblasts by Porphyromonas gingivalis (internalized colony count); type: cell-based
Protocol: as §1, §2, §3
The cells are washed five times with PBS to remove non-adherent bacteria. Fresh cell culture medium containing 1× penicillin (100 IU) and streptomycin (100 μg/ml) is added and the cells incubated at 37° C. in 5% CO2 incubator for 2 hours to kill extracellular bacteria. […]

In the case of O=C([O-])CC(O)(CC(=O)[O-])C(=O)[O-].O=C([O-])CC(O)(CC(=O)[O-])C(=O)[O-].[Zn+2].[Zn+2].[Zn+2] [ZnCitrate, zinc citrate], the “Bacterial Count” value ([1]; Table 2, internalized Aa in HPdLF cells, sample at 8 ppm, Aa alone 178) is reported as 64 and the “reduces internalized Actinobacillus actinomycetemcomitans” value ([1]; Table 2 experiment, at 8 ppm) is reported as “approximately 66%”.
In the case of [O]=[Zn] [ZnO, zinc oxide], the “Bacterial Count” value ([1]; Table 1, internalized Aa in HPdLF cells pretreated 30 minutes with sample, ZnO concentration not given, Aa alone 11800) is reported as 10040, the “reduces internalized Actinobacillus actinomycetemcomitans” value ([1]; Table 1 experiment) is reported as “approximately 15%” and the “Bacterial Count” value ([1]; Table 2, internalized Aa in HPdLF cells, sample at 4 ppm, Aa alone 178) is reported as 137. The “reduces internalized Actinobacillus actinomycetemcomitans” value ([1]; Table 2 experiment, at 4 ppm) was “approximately 23%”, the “Bacterial Count” value ([2]; Table 1, internalized Pg in HPdLF cells pretreated 30 minutes with sample, ZnO concentration not given, Pg alone 11460) was 10760 and the “reduces internalized Porphyromonas gingivalis” value ([2]; Table 1 experiment, versus Pg alone, HPdLF cells) was “approximately 6%”.
